Tests used:
[1] = Stability of analytes in rat plasma (auto-sampler, freeze-thaw, room temperature, long-term); conditions: for Autosampler for 24 h Accuracy (%): autosampler 24 h; for Room temperature for 24 h Accuracy (%): room temperature 24 h; for Freeze thaw cycles Accuracy (%): three freeze-thaw cycles; for −80°C for 1month Accuracy (%): −80°C 1 month
[2] = Pharmacokinetic study in rat plasma after oral administration of QJYQ (UHPLC-sMRM); type: in vivo, Sprague-Dawley rats
Experimental: Exion LC AD tandem Blueline 3500 triple quadrupole mass spectrometer (AB SCIEX, Framingham, MA, United States) was used to thirty-three compounds in rat plasma. […] The whole detailed parameters of sMRM were obtained in Supplementary Table S1.
Rat plasma (100 μL) was mixed with 10% formic acid (10 μL) and vortexed for 1 min at room temperature. ISs (10 μL) and methanol/acetonitrile (1/1, v/v) (400 μL) were added and vortexed for 5 min, then centrifuged for 10 min at 14,000 rpm and 4°C. The transported supernatant was condensed to dryness under the flow of nitrogen gas. The dried residue was reconstituted with 70% methanol (100 μL) by vortex-mixing for 5 min and centrifuging at 14,000 rpm for 10 min. Last, 2 μL of the solution were injected into the UHPLC-sMRM system.
The pharmacokinetic study was approved by the Animal Ethics Committee of Tianjin University of Traditional Chinese Medicine (TCM-LAEC2021228). Ten male Sprague-Dawley rats (weight 220–240 g) was kept at the animal center of Tianjin University of Traditional Chinese Medicine (Tianjin, China). […] The sample was transferred right away following a 10 min period of centrifugation at 7000 rpm and 4°C. All plasma samples were frozen and stored at −80°C.
All the pharmacokinetic parameters were calculated using the DAS 1.0 software (Drug and Statistics 1.0, Medical College of Wannan, China). Pharmacokinetic parameters include the maximum drug concentration in plasma (Cmax), the time to achieve maximum drug concentration (Tmax), the area under the plasma concentration-time curve (AUC), elimination half-life (T1/2), and mean residence time (MRT). The pharmacokinetic parameters were computed using the non-compartmental model. All data are expressed as mean ± standard deviation (SD). GraphPad Prism 8.0 (GraphPad Software Inc., La Jolla, CA, United States) software was used to draw the drug-time curve.

[3] = Stability of the working solution (4°C for 1 month); type: physicochemical
Experimental: The stability of analytes in plasma was evaluated by analyzing 4 QC samples (n = 6). The stability was included auto-sampler stability (keeping the sample in auto-sampler for 24 h), three times of freeze-thaw cycles stability (freezing cycle at −80°C, thawing cycle at room temperature), room temperature stability (storing samples at room temperature for 24 h), long-term stability (storing samples at −80°C for 1 month). […] Accompanying curve was established when testing the sample, calculate and compare the ratio of the actual measured concentration to the theoretical concentration, expressed in accuracy and RSD.

| SMILES | Autosampler for 24 h Accuracy (%) ([1]; 1.56 ng/mL) | Room temperature for 24 h Accuracy (%) ([1]; 1.56 ng/mL) | Freeze thaw cycles Accuracy (%) ([1]; 1.56 ng/mL) | −80°C for 1month Accuracy (%) ([1]; 1.56 ng/mL) | Autosampler for 24 h Accuracy (%) ([1]; 12.5 ng/mL) | Room temperature for 24 h Accuracy (%) ([1]; 12.5 ng/mL) | −80°C for 1month Accuracy (%) ([1]; 12.5 ng/mL) | Autosampler for 24 h Accuracy (%) ([1]; 100 ng/mL) | Room temperature for 24 h Accuracy (%) ([1]; 100 ng/mL) | Freeze thaw cycles Accuracy (%) ([1]; 100 ng/mL) | −80°C for 1month Accuracy (%) ([1]; 100 ng/mL) | Autosampler for 24 h Accuracy (%) ([1]; 500 ng/mL) | Room temperature for 24 h Accuracy (%) ([1]; 500 ng/mL) | Freeze thaw cycles Accuracy (%) ([1]; 500 ng/mL) | −80°C for 1month Accuracy (%) ([1]; 500 ng/mL) | Working solution Accuracy (%) ([3]; 1.56 ng/mL) | Working solution Accuracy (%) ([3]; 12.5 ng/mL) | Working solution Accuracy (%) ([3]; 100 ng/mL) | Working solution Accuracy (%) ([3]; 500 ng/mL) | Freeze thaw cycles Accuracy (%) ([1]; 12.5 ng/mL) | further results |
| --- | --- | --- | --- | --- | --- | --- | --- | --- | --- | --- | --- | --- | --- | --- | --- | --- | --- | --- | --- | --- | --- |
| O=C(O)c1ccc(O)c(O)c1 [protocatechuic acid] | 103.0% | 110.0% | 103.0% | 80.4% | 86.0% | 91.0% | 114.0% | 98.5% | 106.0% | 90.0% | 100.0% | 85.2% | 85.3% | 89.0% | 91.2% | 82.3% | 104.0% | 92.6% | 88.9% | – | Tmax ([2]; male, Sprague-Dawley, rat, plasma, po, 3.15 g/kg, rat plasma, oral QJYQ 3.15 g/kg, n = 8, mean ± SD, read-out: Tmax): < 0.5 h; half-life ([2]; male, Sprague-Dawley, rat plasma, oral QJYQ 3.15 g/kg, n = 8, mean ± SD): 2.33 ± 0.52 h; AUC(0-t) ([2]; male, Sprague-Dawley, rat plasma, oral QJYQ 3.15 g/kg, n = 8, mean ± SD, read-out: AUC(0-t)): 40.8 ± 10.9 ng·h/mL; AUC(0-inf) ([2]; male, Sprague-Dawley, rat plasma, oral QJYQ 3.15 g/kg, n = 8, mean ± SD, read-out: AUC(0-∞)): 40.9 ± 17.3 ng·h/mL; Cmax ([2]; male, Sprague-Dawley, rat plasma, oral QJYQ 3.15 g/kg, n = 8, mean ± SD, read-out: Cmax): 6.79 ± 4.35 ng/mL; MRT inf ([2]; male, Sprague-Dawley, rat plasma, oral QJYQ 3.15 g/kg, n = 8, mean ± SD, read-out: MRT (0-∞)): 5.32 ± 1.53 h; MRT last ([2]; male, Sprague-Dawley, rat plasma, oral QJYQ 3.15 g/kg, n = 8, mean ± SD, read-out: MRT(0-t)): 5.3 ± 1.02 h |
| O=C(/C=C/c1ccc(O)c(O)c1)O[C@@H]1C[C@](O)(C(=O)O)C[C@@H](O)[C@H]1O [chlorogenic acid] | – | – | – | – | 94.6% | 97.3% | 98.3% | 96.9% | 105.0% | 95.5% | – | 85.5% | 94.3% | 96.9% | 94.3% | – | – | – | – | 100.0% | Autosampler for 24 h Accuracy (%) ([1]; 50 ng/mL): 97.5%; Room temperature for 24 h Accuracy (%) ([1]; 50 ng/mL): 106.0%; −80°C for 1month Accuracy (%) ([1]; 50 ng/mL): 115.0%; detection in rat plasma ([2]; rat plasma after oral QJYQ 3.15 g/kg): not detected |
| O=C(/C=C/c1ccc(O[C@@H]2O[C@H](CO)[C@@H](O)[C@H](O)[C@H]2O)cc1)c1ccc(O)cc1O [isoliquiritin] | 99.3% | 88.9% | 95.5% | 83.8% | 108.0% | 87.5% | – | 107.0% | 96.6% | 94.5% | 106.0% | 96.3% | 96.7% | 91.6% | 95.0% | 106.0% | 110.0% | – | 93.3% | 90.9% | – |
| O=c1c(O[C@@H]2O[C@H](CO)[C@H](O)[C@H](O)[C@H]2O)c(-c2ccc(O)c(O)c2)oc2cc(O)cc(O)c12 [hyperoside] | 111.0% | 91.6% | 97.6% | 106.0% | 101.0% | – | 100.0% | 90.5% | 95.4% | 93.5% | 88.8% | 95.8% | 99.1% | 95.3% | – | – | 92.1% | 91.2% | 95.0% | 98.4% | – |

— publication PMC10133546, “Simultaneous determination of multiple components in rat plasma by UHPLC-sMRM for pharmacokinetic studies after oral administration of Qingjin Yiqi Granules” (Frontiers in Pharmacology, 2023)
